Data on 86 compounds can be found in PubChem BioAssay AID2305 (GlaxoSmithKline (GSK), 2010).

Each structure is given as a SMILES string. pIC50: −log10 of the molar value. “And” between values parts separate entries of the source, which are not always exact repeats. Equal values may be shown once.

The test system of this assay is P. falciparum 3D7 growth, pLDH absorbance. In words: blood-stage malaria parasite growth potency – strain 3D7, dose response (AID 2305).
Consider `CCOC(=O)c1c(NC(=O)c2ccccc2)sc2c(O)c(CN(CC)CC)ccc12`, for which the pIC50 is 6.01.
With `N#Cc1ccc(N2CCN(Cc3ccc(-c4cccc(-c5nc6ccccc6[nH]5)c4)cc3)CC2)nc1` the figure was 6.04.
For the compound `O=C(/C=C/c1ccc(F)c(C(F)(F)F)c1)N1CCC(CN2CCC(c3c[nH]c4ccccc34)CC2)CC1`, the pIC50 is 6.04.
`CCC(=O)N(c1ccccc1)C1CCN(CCCC(NC(=O)c2cc(C(F)(F)F)cc(C(F)(F)F)c2)c2ccc(Cl)c(Cl)c2)CC1` (stereo unspecified) had a pIC50 of 6.10.
In the case of `O=C(Nc1ccccc1)N(Cc1ccc(-c2ccc(CNC3CCCC3)cc2)cc1)C1CCN(Cc2ccccc2)CC1` it was 6.39.
As to `COc1c(C2CCN(CCCCNC(=O)c3ccc(NC(=O)c4ccc(C#N)cc4)cc3)CC2)ccc2c1CCCC2`, the pIC50 was 6.54.
For the compound `COc1ccc(CCN(C)CCCCNC(=O)c2ccc(NC(=O)c3ccc(Cl)cc3)cc2)c(OC)c1`, the pIC50 was 6.04. Compared with the last compound, the pIC50 is 0.50 log units lower.
In the case of `O=C(/C=C/c1ccc(Cl)c(Cl)c1)NCCCN1CCC(c2c[nH]c3ccccc23)CC1` it was 6.01; in that of `CN(C)CCNc1ncnc2c1[nH]c1ccc(Br)cc12`, 6.13.
In the case of `COc1cccc(-c2nn(C)c3sc(C(=O)NCCN4CCN(c5ccccc5F)CC4)cc23)c1` it was 6.02; in that of `Cc1cc(NC(=O)N=C(N)N)ccc1Cl`, 6.15.
In the case of `COc1ccc(Nc2c3ccc(Cl)cc3nc3ccc(OC)cc23)cc1` it was 6.36; in that of `N=c1n(CCN2CCCCC2)c2ccccc2n1CC(=O)c1cccc([N+](=O)[O-])c1`, 6.06; in that of `COc1ccc(C2CC(c3cccs3)=NN2C(=O)c2ccccc2)cc1OC` (stereo unspecified), 6.18.
As to `CC1(C)N=C(N)N=C(N)N1OCCOc1ccc(Cc2ccccc2)cc1`, the pIC50 is 7.40.
With `COc1cc(Nc2nccc(N3CCC(NC(=O)c4cc5ccccc5s4)C3)n2)cc(OC)c1OC` (stereo unspecified) the figure was 6.10; with `Cc1cccc(C)c1CNc1ccnc2cc(Br)ccc12`, 6.77; with `COc1ccc2c(c1)CC(CNC[C@H](O)c1cccc(Cl)c1)CC2` (stereo partly specified), 6.00.
In the case of `Cc1nc(N)nc(N)c1Oc1cccc(Cl)c1`, the pIC50 is 6.06.
`CN(C)CCN(C)Cc1nc(-c2ccc3c(Nc4ccc(Oc5ccccc5)cc4)ccnc3c2)cs1` gave a pIC50 of 6.68.
In the case of `C#CCN(Cc1ccc2nc(N)[nH]c(=O)c2c1)c1ccc(C(=O)N[C@@H](CCC(=O)O)C(=O)O)cc1` it was 6.66; in that of `COc1cc(Cc2cnc(N)nc2N)cc(OCCCCc2ccc([N+](=O)[O-])cc2)c1OC`, 6.00.
In turn, `COc1cccc(NC(=O)Nc2ccc(-c3oc(C(=O)NCC(c4ccccc4)N(C)C)cc3-c3ccncc3)cc2)c1` (stereo unspecified) showed a pIC50 of 5.74.
With `COc1ccc(-c2ccc(Nc3cccc(S(=O)(=O)CCN4CCC(CCN(C)C)CC4)c3)nc2)cn1` the figure was 5.95; with `O=C(/C=C/c1ccc(Cl)c(Cl)c1)NCCCCCCN1CCCN(C(=O)Nc2ccc(Cl)c(Cl)c2)CC1`, 6.17; with `Cc1ccn2c(C(=O)N3CCN(c4cccc5c4nc(-c4ccoc4)n5Cc4ccccn4)CC3)c(C)nc2c1`, 6.70.
In the case of `O=C(Nc1ccc(Br)cc1)N(CCN1CCOCC1)CC(O)COCc1ccc(Cl)c(Cl)c1` (stereo unspecified) it was 6.03; in that of `CC(C)Sc1nc2c(c(=O)n1CCc1ccccc1)C1(CCCC1)Cc1ccccc1-2`, 6.46; in that of `CC(C)(C)OC(=O)Cn1cnc2cc(NC(=O)c3cc([N+](=O)[O-])cc([N+](=O)[O-])c3)ccc21`, 6.51.
With `CN(C)CCCNCc1ccc(-c2ccc(CNCCc3ccccc3)cc2)cc1` the figure was 6.00; with `Cc1cc(N[C@@H](Cc2ccccc2)C(=O)NC2CCCC2)nc(NCCc2ccc(F)cc2)n1`, 6.10; with `CC(C)(C(=O)Nc1ccc(C2CCC(NCC3CC3)CC2)c(Cl)c1)c1ccc(C(F)(F)F)cc1` (stereo unspecified), 6.02.
The compound `O=C(Nc1cc(F)cc(F)c1)N[C@H]1CCN(CCCCCNC(=O)[C@@H]2C[C@H]2c2ccc(Cl)c(Cl)c2)C1` gave a pIC50 of 5.97.
As to `CCCOc1cc(OCCC)cc(-c2ccc(C(=O)Nc3ccc4ccc(C)nc4c3)c(=O)[nH]2)c1`, the pIC50 was 6.12.
`O=C(Nc1ccc(Cl)cc1)Nc1cccc(-c2cccc(-c3nc4ccc(F)cc4[nH]3)c2)c1` had a pIC50 of 6.66.
With `Cc1sc(N2CCN(C)CC2)nc1C(=O)Nc1ccc(F)cc1C(F)(F)F` the figure was 5.97; with `CN1CCN(c2ccnc3ccc(NC(=O)Nc4c(Cl)cccc4Cl)cc23)CC1`, 6.06; with `O=C(Nc1nccs1)c1cn(-c2ccccc2)nc1-c1ccc(Cl)s1`, 6.01.
`Cc1cccc(-c2cc3cc(Nc4ccnc5cc(-c6nccs6)ccc45)ccc3[nH]2)c1` showed a pIC50 of 6.77. Compared with the last compound, the pIC50 is 0.76 log units higher.
In the case of `Cc1cccc2[nH]c(-c3cccc(-c4cccc(CN5CCN(c6ccncc6)CC5)c4)c3)nc12` it was 6.70; in that of `CC(C)Nc1cc(C(=O)N[C@@H](Cc2ccccc2)[C@H](O)CNC2CCCCC2)cc(N2CCCCS2(=O)=O)c1`, 7.00.
`CCCCCCN1CCCN(Cc2ccc(C(=O)Nc3ccc(C(C)C)cc3)cc2)CC1` gave a pIC50 of 6.08. This pIC50 is 0.92 log units lower than that of the compound before.
In turn, `CC(=O)Nc1ccc2[nH]cc(C3CCN(CC4CCC(NC(=O)/C=C/c5ccc(Cl)c(Cl)c5)CC4)CC3)c2n1` (stereo unspecified) showed a pIC50 of 6.59.
`Cn1nc(C(F)(F)F)cc1-c1ccc(C(=O)NC2CCC(CN3CCC(c4c[nH]c5ccccc45)CC3)CC2)s1` (stereo unspecified) had a pIC50 of 6.25.
With `O=C(Nc1ccc(-c2nc3ccccc3[nH]2)cc1)C1CCN(Cc2ccc(F)cc2)CC1` the figure was 6.08.
With `O=C(Nc1ccc(C(F)(F)F)cc1)NC1CCN(c2ccnc3cc(Cl)ccc23)CC1` the figure was 6.74; with `COc1cccc2c(NN=Cc3cccc(Cl)c3)ccnc12`, 6.08.
In the case of `COc1ccc2nccc([C@@H](O)CN3CCC(NC(=O)/C=C/c4ccc(F)c5ccccc45)CC3)c2c1` it was 6.74.
`COc1cccc(NC(=O)Nc2ccc(Nc3nc(C)cc(N4CCCC4)n3)cc2)c1` had a pIC50 of 6.70.
With `Fc1ccc2nc(-c3ccc(-c4ccc(CN5CCCCC5)cc4)cc3)[nH]c2c1` the figure was 6.46; with `Oc1ccc2[nH]cc(C3=CCN(Cc4ccccc4)CC3)c2c1`, 6.01; with `Cc1cccc2[nH]c(-c3cccc(-c4ccc(NC(=O)C5CC(=O)Nc6ccccc65)cc4)c3)nc12` (stereo unspecified), 6.16.
For the compound `CCC(C)(C)C1CCc2[nH]c3ccccc3c(=O)c2C1` (stereo unspecified), the pIC50 is 6.42.
In the case of `c1ccc(CN2CCC(NCc3ccc(-c4ccc(CNC5CCCC5)cc4)cc3)CC2)cc1` it was 6.54; in that of `COc1ccc(NC(=O)Nc2ccc(-c3ccncc3)c(C(F)(F)F)c2)cc1N1CCN(C)CC1`, 6.12; in that of `CC(C)C[C@H](NC(=O)c1cccc(F)c1)C(=O)N[C@H](/C=N/NC(=O)c1ccccc1)CCc1ccccc1`, 6.15.
With `CCOC(=O)c1sc(C(C)Nc2ccccc2)nc1-c1ccccc1` (stereo unspecified) the figure was 6.48.
With `CCC(C)c1cccc(C(C)CC)c1OCCCON1C(N)=NC(N)=NC1(C)C` (stereo unspecified) the figure was 7.70; with `CCn1c(-c2ccccc2)cc2nnc3ccccc3c21`, 6.11.
The compound `CCCCc1cc(=O)oc2cc(C)cc(OCc3ccccc3F)c12` showed a pIC50 of 5.99.
The compound `Cc1cccc(NC(=O)NC2CCN(CCCCCNC(=O)/C=C/c3ccc(Cl)c(Cl)c3)CC2)c1` gave a pIC50 of 6.12.
`CCOc1ccc(C(C)NC(=O)Nc2ccccc2)cc1OCC` (stereo unspecified) showed a pIC50 of 6.05.
Compound `C=CCNC(=O)CCCN=C(N)N` showed a pIC50 of 6.14.
In the case of `COc1ccc(CC2(c3ccc(F)cc3)N=C(N)N(CCCc3ccc(F)c(F)c3)C2=O)cc1` (stereo unspecified) it was 6.11; in that of `Cc1ccc(C[C@@H](C)NC[C@H](O)c2cccc(C(F)(F)F)c2)cc1`, 6.06 and 6.15.
With `COc1ccc2ccccc2c1C=NNc1ccnc2ccc(F)cc12` the figure was 5.95; with `COc1cc(OC)cc(C(=O)Nc2ccc(Nc3nc(C)cc(N(C)C)n3)cc2)c1`, 6.19.
With `O=C(CC(=O)C(F)(F)F)c1ccc2c(c1)OCO2` the figure was 6.13; with `O=C(Nc1cc(Oc2ccc(O)cc2)cc([N+](=O)[O-])c1)c1cc(-c2ccc(F)cc2)no1`, 6.02; with `CC(C)(CNC(=O)C1CCN(Cc2ccc(Cl)cc2)CC1)c1nc(-c2ccc(Cl)c(O)c2)c(-c2ccncc2)[nH]1`, 6.21.
In turn, `OCC1CCN(Cc2cccc(-c3ccc(-c4nc5ccc(F)cc5[nH]4)cc3)c2)CC1` had a pIC50 of 6.14.
With `COc1ccc(C2CC(=O)C3=C(C2)NC(C)=C(C(=O)OC2CCCC2)C3c2cccc(O)c2)cc1` (stereo unspecified) the figure was 6.00; with `CC(C)C[C@H](NC(=O)c1ccc(OCCN2CCOCC2)cc1)C(=O)N[C@H](/C=N/N1CC(=O)NC1=O)CCc1ccccc1`, 6.55.
Take `O=C(CNc1ccc(Cl)c(S(=O)(=O)N2CCCC2)c1)Nc1ccc(Br)cc1F`: the pIC50 was 6.49.
In the case of `O=C(/C=C/c1ccc(Cl)c(Cl)c1)NCCCCCN1CCCC(CNC(=O)Nc2ccc(C(F)(F)F)cc2)C1` (stereo unspecified), the pIC50 was 6.17. Against the preceding compound, the pIC50 is 0.32 log units lower.
Regarding `Cc1ccc2nc(C)cc(NN=Cc3cccc(F)c3)c2c1`, the pIC50 was 6.20. This pIC50 and that of the compound before are within 0.2 log units of each other.
In the case of `CCCCCC(=O)NCC(NCCCNc1cc(=O)c2ccccc2[nH]1)c1cc(Br)cc(Br)c1` (stereo unspecified) it was 6.19; in that of `CCCCCCCCc1c(C)[nH]c(C)c(C#N)c1=O`, 6.40.
With `CCc1cn2c3c(cc(C(=O)N[C@@H](Cc4ccccc4)[C@H](O)CNCC(C)C)cc13)N(C)S(=O)(=O)CC2` the figure was 7.40.
Compound `Cc1cccc2[nH]c(-c3ccc(-c4cccc(CN5CCC(CO)CC5)c4)s3)nc12` gave a pIC50 of 6.03.
With `CNC(=O)c1ccc2[nH]cc(C3CCN(CC4CCC(NC(=O)/C=C/c5ccccc5Cl)CC4)CC3)c2c1` (stereo unspecified) the figure was 6.08; with `Cc1nc2ccc3ccc(CNc4ccc5c(c4)CN([C@H](CCC(=O)O)C(=O)O)C5=O)cc3c2c(=O)[nH]1`, 6.07.
In the case of `O=C(CCCCCNC(=O)c1ccc(O)c(-c2ccc(Cl)c(Cl)c2)c1)NCCN1CCOCC1` it was 6.08; in that of `CCNc1cc(C(=O)N[C@@H](Cc2ccccc2)[C@H](O)CNCCC(C)c2ccccc2)cc(N2CCCC2=O)c1` (stereo partly specified), 6.29; in that of `CCCc1cc(N2CCC(N(CC)CC)C2)nc(Nc2ccc(OC)cc2)n1` (stereo unspecified), 6.77.
Take `COc1ccc2nccc([C@@H](O)CN3CCC(NC(=O)C(c4cc5ccccc5s4)N4CC(C)OC(C)C4)CC3)c2c1` (stereo partly specified): the pIC50 was 6.01.
